Experiments:
[1] = system: HCT116 isogenic IDH1-R132H mutant cells; assay: Cellular 2-HG assay using HCT116 mutant IDH1 cells (R132H); type: cell-based; conditions: Homo sapiens, HCT-116; cellular 2-HG inhibition, 24 hours, RapidFire mass spectrometry; read-out: HCT116 IDH1 R132H IC50 Range
[2] = system: HCT116 isogenic IDH1-R132C mutant cells; assay: Cellular 2-HG assay using HCT116 mutant IDH1 cells (R132C); type: cell-based; conditions: Homo sapiens, HCT-116; cellular 2-HG inhibition, 24 hours, RapidFire mass spectrometry; read-out: HCT116 IDH1 R132C IC50 Range
[3] = biological target: IDH1-R132H recombinant protein (Homo sapiens, UniProt O75874, R132H); assay: IDH1-R132H enzymatic assay (NADPH consumption, diaphorase/resazurin readout); type: biochemical; conditions: read-out: Enzyme IDH1 R132H IC50 Range
In short: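 Compound was preincubated 15 min at 25 °C with recombinant IDH1-R132H (30 nM) or IDH1-R132C (10 nM) enzyme solution in 50 mM Tris pH 7.5, 150 mM NaCl, 5 mM MgCl2, 0.1% BSA and 0.01% Triton X-100. A solution of 2 mM α-ketoglutarate and 20 μM NADPH was then added for 45 min at 25 °C. Remaining NADPH was read by diaphorase/resazurin, and IC50 came from a four-parameter logistic fit of NADPH-consumption inhibition.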

[4] = biological target: IDH1-R132C recombinant protein (Homo sapiens, UniProt O75874, R132C); assay: IDH1-R132C enzymatic assay (NADPH consumption, diaphorase/resazurin readout); type: biochemical; conditions: read-out: Enzyme IDH1 R132C IC50 Range
Protocol: Assays were performed in a 384-well black plate. An aliquot of 250 nL of compound was incubated with 10 μL of 30 nM IDH1-R132H or 10 nM IDH1-R132C recombinant protein in assay buffer (50 mM Tris pH=7.5, 150 mM NaCl, 5 mM MgCl2, 0.1% (w/v) Bovine Serum Albumin, and 0.01% Triton X-100) in each well at 25° C. for 15 minutes. After the plate was centrifuged briefly, an aliquot of 10 μL of 2 mM α-ketoglutarate and 20 μM NADPH solution prepared in assay buffer was then added to each well and the reaction was maintained at 25° C. for 45 minutes. An aliquot of 10 μL of diaphorase solution (0.15 U/mL diaphorase and 30 μM Resazurin in assay buffer) was added to each well. […] The IC50 of a given compound was calculated by fitting the dose response curve of inhibition of NADPH consumption at a given concentration with the four parameter logistic equation.

Sequence of IDH1-R132C recombinant protein (O75874 whole entry R132C): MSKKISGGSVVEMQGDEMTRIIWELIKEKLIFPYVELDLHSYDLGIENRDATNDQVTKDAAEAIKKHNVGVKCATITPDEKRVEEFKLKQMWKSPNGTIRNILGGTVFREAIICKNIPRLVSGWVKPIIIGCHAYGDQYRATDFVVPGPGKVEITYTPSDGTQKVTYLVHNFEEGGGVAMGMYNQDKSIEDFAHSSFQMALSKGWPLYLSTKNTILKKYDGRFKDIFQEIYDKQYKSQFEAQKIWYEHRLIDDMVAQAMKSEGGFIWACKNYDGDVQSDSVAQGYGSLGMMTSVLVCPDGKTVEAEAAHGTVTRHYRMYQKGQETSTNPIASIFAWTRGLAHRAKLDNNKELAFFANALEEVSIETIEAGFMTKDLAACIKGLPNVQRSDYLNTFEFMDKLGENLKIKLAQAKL
Sequence of IDH1-R132H recombinant protein (O75874 whole entry R132H): as the sequence (O75874 whole entry R132C) above, with C132H counted along it

In the case of `COc1cc(NCc2cc3cc(Cl)ccc3[nH]c2=O)ccc1C#N` [Compound I-7, 4-{[(6-chloro-2-oxo-1,2-dihydroquinolin-3-yl)methyl]amino}-2-methoxybenzonitrile], the IC50 [1] is reported as 100 to 1000 nM, the IC50 [2] is reported as greater than 1000 nM and the IC50 [3] is reported as 100 to 1000 nM. The IC50 [4] was greater than 1000 nM.

From US10266495B2, “Phenyl quinolinone derivatives as mutant-isocitrate dehydrogenase inhibitors” (FORMA TM2, Inc., priority 2014, dated 2019)
